PMC2222763 (The Journal of General Physiology, 1998)
“And” between values parts separate entries of the source, which are not always exact repeats. Equal entries are not always repeated. Where two headings read alike, the source gives them in different places.

Experiments:
[1] = tested on: large-conductance Ca^2+-activated K^+ channels (BK channels); assay type: biochemical, goldfish, Carassius auratus; settings: voltage steps −50 to +50 mV; 20 μM Sr^2+ or 5 μM Ca^2+
[2] = tested on: large-conductance Ca^2+-activated K^+ channels (BK channels); assay type: biochemical, goldfish, Carassius auratus
[3] = tested on: large-conductance Ca^2+-activated K^+ channels (BK channels); assay: Steady state activation of BK channels; assay type: biochemical, goldfish, Carassius auratus; settings: for Po: 20 μM [Sr^2+]i or 5 μM [Ca^2+]i (equipotent); for decrease in V0.5 produced by a 10-fold increase in concentration: slopes of concentration–V0.5 plots
[4] = tested on: large-conductance Ca^2+-activated K^+ channels (BK channels); assay: Slow blockade: long shut events and burst durations in single BK channels; assay type: biochemical, goldfish, Carassius auratus
[5] = tested on: BK channels; settings: cited from earlier work
[6] = tested on: BK channels; settings: cultured neurons from rat hypothalamus and brain stem; ref Kang et al., 1994; cited from earlier work
[7] = tested on: BK channels; settings: T-tubule membrane in lipid bilayers; ref Oberhauser et al., 1988; cited from earlier work

SMILES: [Sr+2] [Sr^2+, Strontium]
- activation time constant [1]: 1.22 ms
- deactivation time constant [1]: 0.61 ms
- single-channel current amplitude ([2]; 0.1 mM [Sr^2+]i, 50 mV): 12.3 pA
- single-channel current amplitude ([2]; 0.1 mM [Sr^2+]i, 100 mV): 23.7 pA
- single-channel current amplitude ([2]; 1.0 mM [Sr^2+]i, 50 mV): 10.9 pA
- single-channel current amplitude ([2]; 1.0 mM [Sr^2+]i, 100 mV): 19.7 pA
- single-channel current amplitude ([2]; 10 mM [Sr^2+]i, 50 mV): 8.0 pA
- single-channel current amplitude ([2]; 10 mM [Sr^2+]i, 100 mV): 9.8 pA
- Hill coefficient for amplitude reduction (slope of Hill plot) ([2]; 1st of 100–30 mV series (100 mV)): 0.75
- Hill coefficient for amplitude reduction (slope of Hill plot) ([2]; 2nd of 100–30 mV series (90 mV)): 0.73
- Hill coefficient for amplitude reduction (slope of Hill plot) ([2]; 3rd of 100–30 mV series (80 mV)): 0.75
- Hill coefficient for amplitude reduction (slope of Hill plot) ([2]; 4th of 100–30 mV series (70 mV)): 0.70
- Hill coefficient for amplitude reduction (slope of Hill plot) ([2]; 5th of 100–30 mV series (60 mV)): 0.66
- Hill coefficient for amplitude reduction (slope of Hill plot) ([2]; 6th of 100–30 mV series (50 mV)): 0.62
- Hill coefficient for amplitude reduction (slope of Hill plot) ([2]; 7th of 100–30 mV series (40 mV)): 0.67
- Hill coefficient for amplitude reduction (slope of Hill plot) ([2]; 8th of 100–30 mV series (30 mV)): 0.64
- Hill coefficients for amplitude reduction ([2]; all voltages (30–100 mV), [Sr^2+]i 0.5 mM or higher): 0.62–0.75
- internal concentration producing fast and slow blockade ([2]; concentration and voltage dependent): > 100 µM
- permeation of the channel ([2]; no shift in the reversal voltage in the current–voltage relation): could scarcely permeate the channel
- half-activation voltage V0.5 (Boltzmann distribution) ([3]; 5 μM [Sr^2+]i): 72 mV
- n (equivalent number of gating charges, Boltzmann distribution) ([3]; 5 μM [Sr^2+]i): 1.6
- half-activation voltage V0.5 (Boltzmann distribution) ([3]; 20 μM [Sr^2+]i): 39 mV
- n (equivalent number of gating charges, Boltzmann distribution) ([3]; 20 μM [Sr^2+]i): 1.4
- half-activation voltage V0.5 (Boltzmann distribution) ([3]; 200 μM [Sr^2+]i): 1 mV
- n (equivalent number of gating charges, Boltzmann distribution) ([3]; 200 μM [Sr^2+]i): 1.3
- half-activation voltage V0.5 (Boltzmann distribution) ([3]; 1,000 μM [Sr^2+]i): −22 mV
- n (equivalent number of gating charges, Boltzmann distribution) ([3]; 1,000 μM [Sr^2+]i): 1.3
- Hill coefficient for activation (slope of Hill plot) ([3]; 2nd of +50 to −50 mV series (40 mV)): 1.3
- Hill coefficient for activation (slope of Hill plot) ([3]; 3rd of +50 to −50 mV series (30 mV)): 1.2
- Hill coefficient for activation (slope of Hill plot) ([3]; 4th of +50 to −50 mV series (20 mV)): 1.0
- Hill coefficient for activation (slope of Hill plot) ([3]; 5th of +50 to −50 mV series (10 mV)): 0.83
- Hill coefficient for activation (slope of Hill plot) ([3]; 6th of +50 to −50 mV series (−10 mV)): 0.69
- Hill coefficient for activation (slope of Hill plot) ([3]; 7th of +50 to −50 mV series (−20 mV)): 0.70
- Hill coefficient for activation (slope of Hill plot) ([3]; 8th of +50 to −50 mV series (−30 mV)): 0.79
- Hill coefficient for activation (slope of Hill plot) ([3]; 9th of +50 to −50 mV series (−40 mV)): 0.78
- Hill coefficient for activation (slope of Hill plot) ([3]; 10th of +50 to −50 mV series (−50 mV)): 0.72
- Hill coefficient for activation (slope of Hill plot) ([3]; 50 mV): 1.6
- Po ([3]; 50 mV): 0.309
- Hill coefficient for activation ([3]; between −10 and −50 mV): ~0.7
- potency in activating BK channels relative to Ca^2+ ([3]; from concentration–V0.5 plots, eight membrane patches): approximately one-fourth
- decrease in V0.5 produced by a 10-fold increase in concentration ([3]; eight membrane patches): ~25 mV
- duration of long shut events (slow blockade) [4]: 10 to 200 ms
- probability for the open state during bursts (P[open|burst]) ([4]; 500 μM [Sr^2+]i at 30 mV): 0.86
- time constant of burst durations (τb) ([4]; 0.5 mM [Sr^2+]i, 30 mV): 1,310 ms
- time constant of long shut events (τl−s) ([4]; 0.5 mM [Sr^2+]i, 30 mV): 75.1 ms
- time constant of burst durations (τb) ([4]; 0.5 mM [Sr^2+]i, 50 mV): 631 ms
- time constant of long shut events (τl−s) ([4]; 0.5 mM [Sr^2+]i, 50 mV): 44.7 ms
- time constant of burst durations (τb) ([4]; 2 mM [Sr^2+]i, 30 mV): 520 ms
- time constant of long shut events (τl−s) ([4]; 2 mM [Sr^2+]i, 30 mV): 41.3 ms
- time constant of burst durations (τb) ([4]; 2 mM [Sr^2+]i, 50 mV): 195 ms
- time constant of long shut events (τl−s) ([4]; 2 mM [Sr^2+]i, 50 mV): 41.0 ms
- time constant of burst durations (τb) ([4]; 10 mM Sr^2+, 50 mV, threshold time for long shut events 3.32 ms): 51.0 ms
- time constant of burst durations (τb) ([4]; 10 mM Sr^2+, 50 mV, threshold time for long shut events 15.8 ms): 94.0 ms
- probability for the open state during bursts (P[open|burst]) ([4]; 10 mM [Sr^2+]i at 50 mV): 0.94
- time constant of burst durations (τb) ([4]; 10 mM [Sr^2+]i, 30 mV): 163 ms
- time constant of long shut events (τl−s) ([4]; 10 mM [Sr^2+]i, 30 mV): 44.6 ms
- time constant of long shut events (τl−s) ([4]; 10 mM [Sr^2+]i, 50 mV): 34.4 ms
- time constant of burst durations (τb) ([4]; 10 mM [Sr^2+]i, 50 mV (threshold time for long shut events 6.64 ms)): 63.2 ms
- τb ([4]; 10 mV, square patch (Fig. 9 C)): 425 ms
- slope of log(n 1−s/n s) versus log([Sr^2+]i) ([4]; 10 mV, triangle patch): 0.95
- slope of log(τb) versus log([Sr^2+]i) ([4]; 10 mV, triangle patch): −1.23
- slope of log(τl−s) versus log([Sr^2+]i) ([4]; 10 mV, triangle patch): −0.15
- slope of log(n 1−s/n s) versus log([Sr^2+]i) ([4]; 30 mV, circle patch): 0.71
- slope of log(τb) versus log([Sr^2+]i) ([4]; 30 mV, circle patch): −0.74
- slope of log(τl−s) versus log([Sr^2+]i) ([4]; 30 mV, circle patch): −0.094
- slope of log(n 1−s/n s) versus log([Sr^2+]i) ([4]; 30 mV, triangle patch): 1.08
- slope of log(τb) versus log([Sr^2+]i) ([4]; 30 mV, triangle patch): −0.78
- slope of log(τl−s) versus log([Sr^2+]i) ([4]; 30 mV, triangle patch): 0.01
- slope of log(n 1−s/n s) versus log([Sr^2+]i) ([4]; 50 mV, circle patch): 0.92
- slope of log(τb) versus log([Sr^2+]i) ([4]; 50 mV, circle patch): −0.74
- slope of log(τl−s) versus log([Sr^2+]i) ([4]; 50 mV, circle patch): −0.11
- zd for slow blockade (Woodhull equation, Eq. 7) ([4]; one value per experiment): 0.95 and 1.84
- slope of log(n 1−s/n s) versus log([Sr^2+]i) ([4]; square patch): 1.18
- slope of log(τb) versus log([Sr^2+]i) ([4]; square patch): −1.00
- slope of log(τl−s) versus log([Sr^2+]i) ([4]; square patch): −0.05
- slopes of log(τb) versus log([Sr^2+]i) fitting lines ([4]; three experiments): −0.74 to −1.23
- slopes of log(τl−s) versus log([Sr^2+]i) fitting lines ([4]; three experiments): −0.15–0.01

SMILES: [Ba+2] [Ba^2+, barium ion]
- depth of the binding site within the membrane voltage field (Ba^2+ blockade) ([5]; ref Benham et al., 1985): 0.96
- depth of the binding site within the membrane voltage field (Ba^2+ blockade) ([5]; ref Diaz et al., 1996): 0.92
- depth of the binding site within the membrane voltage field (Ba^2+ blockade) ([5]; ref Neyton and Miller, 1988): 0.5–0.7
- depth of the binding site within the membrane voltage field (Ba^2+ blockade) ([5]; ref Vergara and Latorre, 1983): 0.8
- time constant of long shut events, second exponential ([4]; 20 μM [Ba^2+]i, 100 μM [Ca^2+]i, 50 mV, area 162 events): 359 ms
- time constant of long shut events, first exponential ([4]; 20 μM [Ba^2+]i, 100 μM [Ca^2+]i, 50 mV, area 372 events): 18.8 ms

SMILES: [Ca+2].[Cl-].[Cl-] [Ca^2+]
- potency in reducing the outward current amplitude relative to internal Mg^2+ [6]: ~1,000 ×
- potency of fast blockade relative to Mg^2+ or Sr^2+ [7]: > 10 ×
- activation time constant [1]: 1.14 ms
- deactivation time constant [1]: 0.54 ms
- single-channel current amplitude ([2]; 5 μM [Ca^2+]i, 50 mV (original amplitude)): 13.2 pA
- single-channel current amplitude ([2]; 5 μM [Ca^2+]i, 100 mV (original amplitude)): 26.1 pA
- Hill coefficient for activation (slope of Hill plot) ([3]; 50 mV): 2.7
- Po ([3]; 50 mV): 0.315
- decrease in V0.5 produced by a 10-fold increase in concentration ([3]; eight membrane patches): ~35 mV
